Test results published in paper PMC3163098 (2011).

What was measured:
Format in all cases: binding
cytochrome P450 2B4 [1] = target: T1, cytochrome P450 2B4 (Oryctolagus cuniculus, UniProt P00178, H226Y); assay: UV-visible difference spectral titration
T1 sequence (P00178 28-491 H226Y): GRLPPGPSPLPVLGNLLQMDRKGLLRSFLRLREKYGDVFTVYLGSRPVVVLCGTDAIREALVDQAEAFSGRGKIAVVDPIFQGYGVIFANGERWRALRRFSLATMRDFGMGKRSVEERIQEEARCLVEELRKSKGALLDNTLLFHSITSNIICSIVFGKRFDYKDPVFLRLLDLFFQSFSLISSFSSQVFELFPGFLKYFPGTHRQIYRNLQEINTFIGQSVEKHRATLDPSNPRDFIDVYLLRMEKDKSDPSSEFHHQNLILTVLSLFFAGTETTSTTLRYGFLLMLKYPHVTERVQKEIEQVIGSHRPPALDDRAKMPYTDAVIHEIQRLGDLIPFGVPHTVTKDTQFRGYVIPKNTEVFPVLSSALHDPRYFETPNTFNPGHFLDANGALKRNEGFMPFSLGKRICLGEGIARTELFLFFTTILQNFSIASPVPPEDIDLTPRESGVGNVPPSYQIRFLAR

cytochrome P450 2B4 [2] = target: T1, cytochrome P450 2B4; assay: UV-visible competition with benzphetamine
cytochrome P450 2B4 [3] = target: T1, cytochrome P450 2B4; assay: UV-visible difference spectral titration; remark: listed apart in the source
cytochrome P450 2B4 [4] = target: T1, cytochrome P450 2B4; assay: UV-visible difference spectral titration; remark: listed apart in the source

Cc1c(N)c(=O)n(-c2ccccc2)n1C [AAP, aminoantipyrine]
Kd (cytochrome P450 2B4 [1]): 2600 µM

Cc1c(N(C)C)c(=O)n(-c2ccccc2)n1C [AP, amidopyrine]
Kd (cytochrome P450 2B4 [2]): 2000 µM

C[C@@H](Cc1ccccc1)N(C)Cc1ccccc1 [BP, benzphetamine]
Kd (cytochrome P450 2B4 [3]): 34 µM

CNc1c(C)n(C)n(-c2ccccc2)c1=O [DMAP, desmethylamidopyrine]
Kd (cytochrome P450 2B4 [4]): 3200 µM
